This note sets out measurements from ChEMBL document CHEMBL1201862, “PubChem BioAssay data set” (2004).

Each structure is given as a SMILES string.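 Cultured in 96-well plates, cells were exposed to test compound for 48 hours across five concentrations. At the GI50, growth is halved.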 Calls of active or inactive are those of the source. Cut-off read from the data, not from the text of the source: active = GI50 up to about 1.1 µM and inactive = higher.

Holding throughout (experiment): NCI anticancer screen, dose series, 48 h
Test [1] has as its system DMS-273.
Test [2] deals with HCC 2998.
Test [3] relates to HOP-62.
For test [4], the system named is IGROV-1.
Test [5] deals with LOX IMVI.
The test system of test [6] is M14.
The test system of test [7] is M19-MEL.
Test [8] concerns MOLT-4.
For test [9], the system named is Malme-3M.
The subject of test [10] is NCI-H23.
In test [11] the test system is NCI-H460.
In test [12] the test system is OVCAR-3.
For test [13], the system named is OVCAR-8.
In test [14] the test system is RXF 393.
Test [15] relates to SF-539.
In test [16] the test system is SK-MEL-5.
Test [17] relates to U-251.
Test [18] concerns UACC-62.

Take `COC(=O)/C([Se]c1c(C)cc(C)cc1C)=C(/[Se]c1c(C)cc(C)cc1C)C(=O)OC`: the GI50 in test [1], in [2], in test [3], in test [4], in [5] and in [6] was > 100 µM (inactive) in each case. Besides, the GI50 is > 100 µM (inactive) in test [7]; 47.3 µM (inactive) in test [8]; > 100 µM (inactive) in [9]; > 100 µM (inactive) in test [10]; 78.7 µM (inactive) in [11]; > 100 µM (inactive) in test [12]. In addition, the GI50 in test [13] was > 100 µM (inactive); in test [14], > 100 µM (inactive); in [15], > 100 µM (inactive); in test [16] it was 86.3 µM (inactive); in test [17], > 100 µM (inactive); in [18] it was > 100 µM (inactive).
With `CC1CC2OC(=O)C3CC(O)CC(=C23)[C@@]12C[C@@H](c1ccoc1)OC2=O` (some centres undefined), the GI50 in test [1], in [2], in [4], in test [5], in test [6] and in test [7] was > 100 µM (inactive) each time. The GI50 in test [8], in [9], in [10], in test [11], in test [12] and in test [13] was > 100 µM (inactive) in each case. Besides, the GI50 in test [14], in [15], in test [16], in test [17] and in [18] was > 100 µM (inactive) each time.
As for `CCOc1cccc2nc3cccc(C(=O)NCCN(C)C)c3nc12`, the GI50 in [1] is 0.582 µM (active); in test [2] it was 0.946 µM (active); in test [3] it was 0.469 µM (active); in test [4], 1.04 µM (active); in [5], 0.48 µM (active); in test [6], 2.19 µM (inactive). Also, the GI50 in test [7] was 1.2 µM (inactive); in test [8], 0.333 µM (active); in test [9], 0.995 µM (active); in [10], 1.39 µM (inactive); in test [12], 1.6 µM (inactive); in test [13], 0.891 µM (active). The GI50 in [14] is 1.59 µM (inactive); in test [15], 1.14 µM (inactive); in test [16], 1.78 µM (inactive); in [17], 1.34 µM (inactive); in [18], 1.47 µM (inactive).
Take `COc1ccc(OC)c(NCC#N)c1`: the GI50 in test [1], in [2], in test [3], in test [4], in [5] and in test [6] was > 100 µM (inactive) in each case. Also, the GI50 in test [7], in test [8], in [9], in test [10], in test [11] and in test [12] was > 100 µM (inactive) each time. For the same compound, the GI50 in [13], in test [14], in [15], in test [16], in test [17] and in test [18] was > 100 µM (inactive) each time.
For `CSc1ccc(OCC2OC2O)cc1` (centres undefined), the GI50 is 34.2 µM (inactive) in [1]; > 86.3 µM (inactive) in test [2]; > 100 µM (inactive) in test [3]; > 100 µM (inactive) in [4]; 16.9 µM (inactive) in test [5]; 49.5 µM (inactive) in test [6]. Besides, the GI50 in [7] is 37.7 µM (inactive); in [8], 19.4 µM (inactive); in [9], 98.2 µM (inactive); in test [10], 42.5 µM (inactive); in test [11], 29.4 µM (inactive); in [12] it was 30.6 µM (inactive). For the same compound, the GI50 is 55.6 µM (inactive) in test [13]; > 63.7 µM (inactive) in test [14]; 74.8 µM (inactive) in [15]; 16 µM (inactive) in test [16]; 28.6 µM (inactive) in [17]; 47.9 µM (inactive) in test [18].
Regarding `C[P+]1(c2ccccc2)CCCCC1`, the GI50 in test [1], in test [2], in [3], in [4], in test [5] and in test [6] was > 100 µM (inactive) in each case. Besides, the GI50 in [7], in test [8], in [9], in test [10], in test [11] and in [12] was > 100 µM (inactive) each time. The GI50 in test [13], in test [14], in test [15], in test [16], in [17] and in test [18] was > 100 µM (inactive) each time.
For `C=CCCC12CCCC(=O)C1Sc1ccc3ccccc3c12` (centres undefined), the GI50 is 5.38 µM (inactive) in test [1]; 14.1 µM (inactive) in test [2]; 19.8 µM (inactive) in [3]; 33.8 µM (inactive) in test [4]; 13.6 µM (inactive) in test [5]; 13.2 µM (inactive) in test [6]. In addition, the GI50 was 24.1 µM (inactive) in [7]; 13.2 µM (inactive) in test [8]; 16.4 µM (inactive) in test [9]; 19.7 µM (inactive) in [10]; 13.6 µM (inactive) in test [12]; 32.1 µM (inactive) in [13]. Moreover, the GI50 was 12.2 µM (inactive) in test [14]; 15.1 µM (inactive) in test [15]; > 10 µM (inactive) in test [16]; 16.6 µM (inactive) in test [17]; 11.9 µM (inactive) in [18].
Turning to `COc1cc2c(c(OC)c1OC)-c1ccc(SC)c(=O)cc1[C@@H](NC(=O)c1ccc(C#N)cc1)CC2`, the GI50 in test [1], in test [2], in test [3], in test [4], in [5] and in [6] was < 0.01 µM (active) throughout. The GI50 in [7], in [8], in [9], in test [10], in test [11] and in test [12] was < 0.01 µM (active) in each case. Further, the GI50 in [13], in [14], in [15], in test [16], in test [17] and in [18] was < 0.01 µM (active) in each case.
For `CC(=O)OCC1=C(CCC#N)N2C(=O)C(NC(=O)Cc3cccs3)C2[S+]([O-])C1` (centres undefined), the GI50 in test [1], in [2], in test [3], in [4], in test [5] and in test [6] was > 100 µM (inactive) throughout. Moreover, the GI50 in test [7], in [8], in test [9], in [10], in test [11] and in test [12] was > 100 µM (inactive) in each case. The GI50 in [13], in test [14], in test [15], in test [16], in test [17] and in [18] was > 100 µM (inactive) each time.
On to `c1ccc2c(c1)N=C(c1ccc3ccccc3c1)CC(c1cccc3ccccc13)S2` (centres undefined), for which the GI50 is 36.1 µM (inactive) in test [1]; 15.1 µM (inactive) in [2]; 85.5 µM (inactive) in test [3]; 14 µM (inactive) in test [4]; 25.3 µM (inactive) in test [5]; 54.8 µM (inactive) in test [6]. In addition, the GI50 in test [7] is 29.9 µM (inactive); in test [8], 11.4 µM (inactive); in test [9] it was > 100 µM (inactive); in test [10], 25.7 µM (inactive); in test [11], 29.6 µM (inactive); in [12] it was 33 µM (inactive). The GI50 is 37.9 µM (inactive) in test [13]; 40.4 µM (inactive) in test [14]; 51.6 µM (inactive) in test [15]; 38.5 µM (inactive) in test [16]; 60.1 µM (inactive) in test [17]; 21 µM (inactive) in test [18].
With `Cc1c(Cl)cccc1NC(=O)CC1C(=O)Nc2ccccc2S1(=O)=O` (centres undefined), the GI50 is 7.69 µM (inactive) in test [1]; 16.7 µM (inactive) in test [2]; 15.3 µM (inactive) in test [4]; 14.6 µM (inactive) in [5]; 14.2 µM (inactive) in test [6]; 20.4 µM (inactive) in [7]. Also, the GI50 in test [8] is 7.83 µM (inactive); in [9], 17.6 µM (inactive); in test [10], 18.1 µM (inactive); in test [11], 14.7 µM (inactive); in test [12], 16.6 µM (inactive); in test [13], 18.4 µM (inactive). For the same compound, the GI50 in [14] is 14.7 µM (inactive); in test [15] it was 14.7 µM (inactive); in test [16], 12.2 µM (inactive); in test [17], 13.1 µM (inactive); in test [18], 7.52 µM (inactive).
